Reference: US20230372350A1, “ASTROCYTIC TRPA1 CHANNEL INHIBITION AS A NOVEL NEUROPROTECTIVE THERAPEUTIC TARGET IN THE PRODROMAL PHASES OF ALZHEIMER'S DISEASE” (priority 2020, published 2023)
Entries after “also recorded” stand apart in the source; their conditions may differ.

How the values were obtained:
CA1 pyramidal neurons = assay: Acute in vitro application on hippocampal slices: CA1 neuronal activity; assay type: cell-based, mouse; conditions: 1-month old APP/PS1-21 animals
Experimental: Coronal sections of the hippocampus (thickness 300 μm) were prepared from APP/PS1-21 transgenic mice (1 month and 3 months old) or from WT mice from the same litter. The mice were sacrificed by decerebration and decapitation. The brain was quickly removed and sectioned in ice-cold ACSF containing (in mM) : 2.5 KCl, 7 MgCl2, 0.5 CaCl2, 1.2 NaHPO4, 25 NaHCO3, 11D-glucose and 234 sucrose bubbled with 95% of O2 and 5% of CO2 with a V[…] vibratome (Leica, Germany). The sections containing the hippocampus were placed in ACSF containing (in mM) : 126 NaCl, 2.5 KCl, 1.2 MgCl2, 2.5 CaCl2, 1.2 NaH2PO4 bubbled with 95% of O2 and 5% of CO2 and supplemented with 1 mM of sodium pyruvate at room temperature for a recovery period. Whole-cell recordings were performed on visually identified CA1 pyramidal neuron somas. […] The sEPSCs and their kinetics were analyzed, after a stabilization period of 10 minutes, 5 minutes from the recordings. Access resistance was constantly monitored and recordings were excluded from this study when this parameter varied more than 20% during the experiment. Recordings were analyzed using the Clampfit module of pClamp8 software (Molecular Devices, USA) with a single one at 20 pA to exclude miniature sEPSCs.

[1] = system: models of neuropathic and inflammatory pain; conditions: rats, oral administration 100 mg/kg; Eid et al. 2008; cited from earlier work
WT control animals = assay: Chronic intraperitoneal treatment: overall effect on WT control animals; assay type: in vivo; conditions: daily injection from the 14th to the 90th postnatal day
Experimental: This solution is then diluted to 1 μg/μl in an isotonic solution containing 1% Pluronic F-127 and 0.9% NaCl. The animals are injected daily intraperitoneally at a dose of 5 mg/kg of body mass. Sterile 0.5 ml BD MicroFine syringes with no dead volume, equipped with a 30G (0.3 mm) needle are used for the injections.
The injection is started from the 14th postnatal day (appearance of the expression of the Thy1gene promoter in the hippocampus, triggering the overexpression of Aβ in the APP/PS1-21 murine model)

[2] = system: astrocytes of the hippocampus (stratum radiatum), TRPA1 channel; assay: Acute application on acute hippocampal slices: astrocyte calcium imaging; assay type: cell-based, mouse; conditions: 40 μM, APP/PS1-21 mice 1-month old
Experimental: Coronal sections of the hippocampus (thickness 300 μm) were prepared from APP/PS1-21 transgenic mice (1 month and 3 months old) or from WT mice from the same litter. The mice were sacrificed by decerebration and decapitation. The brain was quickly removed and sectioned in ice-cold ACSF containing (in mM) : 2.5 KCl, 7 MgCl2, 0.5 CaCl2, 1.2 NaHPO4, 25 NaHCO3, 11D-glucose and 234 sucrose bubbled with 95% of O2 and 5% of CO2 with a VT1200S vibratome (Leica, Germany). The sections containing the hippocampus were placed in ACSF containing (in mM) : 126 NaCl, 2.5 KCl, 1.2 MgCl2, 2.5 CaCl2, 1.2 NaH2PO4 bubbled with 95% of O2 and 5% of CO2 and supplemented with 1 mM of sodium pyruvate at room temperature for a recovery period.
300 μm coronal sections were transferred to a chamber allowing constant perfusion with ACSF at room temperature, bubbling with 95% of O2 and 5% of CO2 on the upright microscope tray (Eclipse E600 FN, Nikon, France) equipped with a 60× (NA 1.0) water immersion objective and infrared interference contrast optical systems with a CCD camera (Optronis VX45, Germany). […] The signals were amplified by Axopatch 200B, sampled by a Digidata 1440A interface and recorded by the pClamp8 software (Molecular Devices, USA). […] The input resistance was calculated by measuring the current in response to a 10 mV pulse of 80 ms duration near the end of the voltage command.

[3] = system: dendritic spines of CA1 pyramidal neurons, Thy1-eYFP-H-APP/PS1-21 mice; assay: Chronic intraperitoneal treatment: analysis of dendritic spines; assay type: in vivo, mouse; conditions: 3 months, treated from 14th postnatal day
Experimental: In some experiments, APP/PS1-21 mice were crossed with the Thy1-eYFP-H murine transgenic line which expresses the fluorescent protein eYFP in specific neuron subpopulations. This solution is then diluted to 1 μg/μl in an isotonic solution containing 1% Pluronic F-127 and 0.9% NaCl. The animals are injected daily intraperitoneally at a dose of 5 mg/kg of body mass. Sterile 0.5 ml BD MicroFine syringes with no dead volume, equipped with a 30G (0.3 mm) needle are used for the injections. The injection is started from the 14th postnatal day (appearance of the expression of the Thy1gene promoter in the hippocampus, triggering the overexpression of Aβ in the APP/PS1-21 murine model) Hippocampal sections from Thy1-eYFP-H-APP/PS1-21 mice were imaged using a Zeiss Airyscan module with a 100× (NA 1.4) Plan Apochromat oil immersion objective. Confocal image stacks (increment of 200 nm) were performed with a voxel size of 0.041×0.041×0.2 μm. The 3D analysis of the spine density, of the spine volume and the spine classification was performed using NeuronStudio software (Icahn School of Medicine at Mount Sinai, USA). The length of individual dendrites was automatically measured as well as the number and volume of associated dendritic spines which were classified as […], thin or mushroom using automated 3D shape classification. For each condition, 10 dendrites were imaged and 700 dendritic spines were analyzed.

In the case of `CC(C)c1ccc(NC(=O)Cn2cnc3c2c(=O)n(C)c(=O)n3C)cc1` [HC030031, 2-(1,3-Dimethyl-2,6-dioxo-1,2,3,6-tetrahydro-7H-purin-7-yl)-N-(4-isopropylphenyl)acetamide], the “neuronal hyperactivity (CA1)” value (CA1 pyramidal neurons) is given as “fully restored”, the analgesic effect [1] is given as “significant analgesic effect” and the “effect at the functional level and at the structural level” value (WT control animals) is given as “no effect”. For the same compound, the astrocyte calcium hyperactivity [2] was “fully restored; also recorded: inhibited”, the dendritic spine density [3] was 1.32±0.08 spine/μm and the mushroom-shaped spines [3] was 64.0±1.7%. The thin spines [3] was 26.7±2.0%.
